Measurements reported in patent US12214036B2, “Combination therapy comprising AXL/MER and PD-1/PD-L1 inhibitors” (Incyte Corporation, priority 2020, dated 2025).

Tests used:
4T1 tumor = assay: 4T1 syngeneic tumor model; assay type: in vivo, BALB/c mice
Method: To test potential immunomodulatory activity of Compound 1 in vivo, antitumor efficacy studies were performed in syngeneic tumor models.
MBT-2 cells were obtained from the Japanese Collection of Research Bioresources Cell Bank and were maintained in DMEM supplemented with 10% FBS. MC38 cells were obtained from the NCI. 4T1 cells were obtained from ATCC and maintained in RPMI media supplemented with 10% FBS. For MBT-2 experiments, 5×10^5 MBT-2 cells were inoculated subcutaneously into the right hind flank of 6- to 8-week-old C3H mice or athymic nude mice (Charles River Laboratories, Wilmington, Mass.). For MC38 studies, 12-week old female C57BL/6 mice were inoculated with brei of MC38 tumors (in-vivo passage 6) into the right hind flank. For 4T1 studies, 7.5×10^5 4 T1 cells were inoculated subcutaneously into the right hind flank of 6- to 8-week-old female BALB/c mice or athymic nude mice (Charles River Laboratories). […] Mice were monitored for tumor growth and overt tolerability over the course of the experiment. […] Tumor volume was calculated using the formula (L×W^2)/2, where L and W refer to the length and width dimensions, respectively. Tumor growth inhibition (TGI) was calculated using the formula (1−(VT/VC))×100, where VT is the tumor volume of the treatment group on the last day of treatment, and VC is the tumor volume of the control group on the last day of treatment. […]

179 kinases (c-Met) = assay: Comprehensive kinase study (179 kinases); assay type: biochemical; conditions: evaluated at 200 nM
Method: Compound 1 was also evaluated at 200 nM in a comprehensive kinase study, which included 179 kinases. […] The mode of inhibition with respect to ATP concentration was evaluated using a MER kinase assay.

## CC(C)C(=O)N1CCC(c2cc(-c3ccc(NC(=O)c4cn(C(C)C)c(=O)n(-c5ccccn5)c4=O)cc3)c3c(N)ncnn23)CC1 [Compound 1, N-(4-(4-Amino-7-(1-isobutyrylpiperidin-4-yl)pyrrolo[1,2-f][1,2,4]triazin-5-yl)phenyl)-1-isopropyl-2,4-dioxo-3-(pyridin-2-yl)-1,2,3,4-tetrahydropyrimidine-5-carboxamide]
4T1 tumor; 4T1 in BALB/c mice, oral BID, FIG. 7B
  antitumor efficacy (tumor volume): dose-dependent efficacy
4T1 tumor; 4T1 tumors, flow cytometry, FIG. 7D
  ratio of M1-like to M2-like macrophages: increased the ratio of M1-like to M2-like macrophages in a dose-dependent manner
179 kinases (c-Met)
  inhibition of other kinases: did not inhibit any other kinases
  selectivity for AXL and MER compared to c-Met: approximately 60 fold
